For 17 compounds, IC50 results are on record in patent EP4644396A1 (Visionpharma (Nantong) Co., Ltd, priority 2022, dated 2024).

Like-named read-outs stand apart in the source and are kept apart here. Some results are limits rather than exact numbers.

One test concerns the target T1, human TLR8 (Homo sapiens, UniProt Q9NR97).
T1 construct: expressed in transfected cells
T1 sequence (Q9NR97 27-1041): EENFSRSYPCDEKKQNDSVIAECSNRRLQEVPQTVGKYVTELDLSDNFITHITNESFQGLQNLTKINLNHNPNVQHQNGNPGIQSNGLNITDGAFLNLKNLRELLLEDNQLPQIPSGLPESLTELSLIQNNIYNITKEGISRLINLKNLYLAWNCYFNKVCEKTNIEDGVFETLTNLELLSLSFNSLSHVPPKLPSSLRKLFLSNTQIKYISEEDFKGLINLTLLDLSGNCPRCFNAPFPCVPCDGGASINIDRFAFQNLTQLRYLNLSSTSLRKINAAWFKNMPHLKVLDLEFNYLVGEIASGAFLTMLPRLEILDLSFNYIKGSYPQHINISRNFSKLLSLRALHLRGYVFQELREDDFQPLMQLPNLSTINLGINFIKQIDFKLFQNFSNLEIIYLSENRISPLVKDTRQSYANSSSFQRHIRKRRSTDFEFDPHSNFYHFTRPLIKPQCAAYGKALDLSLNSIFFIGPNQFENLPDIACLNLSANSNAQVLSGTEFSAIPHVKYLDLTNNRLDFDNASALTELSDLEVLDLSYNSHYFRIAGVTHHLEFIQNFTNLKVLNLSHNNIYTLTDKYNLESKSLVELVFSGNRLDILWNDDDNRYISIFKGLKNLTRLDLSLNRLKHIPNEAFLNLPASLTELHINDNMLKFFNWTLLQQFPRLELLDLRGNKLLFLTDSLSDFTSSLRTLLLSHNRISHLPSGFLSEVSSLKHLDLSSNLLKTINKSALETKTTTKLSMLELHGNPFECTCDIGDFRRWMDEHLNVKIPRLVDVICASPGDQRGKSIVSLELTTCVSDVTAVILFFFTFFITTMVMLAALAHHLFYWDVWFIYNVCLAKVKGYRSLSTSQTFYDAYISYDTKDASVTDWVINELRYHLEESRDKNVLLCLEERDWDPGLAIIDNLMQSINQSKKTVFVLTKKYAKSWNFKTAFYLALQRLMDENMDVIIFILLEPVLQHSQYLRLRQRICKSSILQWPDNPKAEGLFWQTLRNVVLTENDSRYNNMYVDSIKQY
As to the kind of experiment: HEK-Blue hTLR8 SEAP reporter gene inhibition assay. The test is classed as cell-based. The method, boiled down: (§1)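 Cells seeded (TLR7 line 80,000, TLR8 line 60,000 per well), compound added at 0.001–36 µM final for 15 min, then agonist at 10 µM final (Gardiquimod for TLR7) for 20 h. SEAP measured with Quanti-Blue; IC50 fitted.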
For orientation: A reporter such as luciferase makes a cellular process visible.

A further test concerns the target T2, human TLR7 (Homo sapiens, UniProt Q9NYK1).
T2 sequence (Q9NYK1 27-1049): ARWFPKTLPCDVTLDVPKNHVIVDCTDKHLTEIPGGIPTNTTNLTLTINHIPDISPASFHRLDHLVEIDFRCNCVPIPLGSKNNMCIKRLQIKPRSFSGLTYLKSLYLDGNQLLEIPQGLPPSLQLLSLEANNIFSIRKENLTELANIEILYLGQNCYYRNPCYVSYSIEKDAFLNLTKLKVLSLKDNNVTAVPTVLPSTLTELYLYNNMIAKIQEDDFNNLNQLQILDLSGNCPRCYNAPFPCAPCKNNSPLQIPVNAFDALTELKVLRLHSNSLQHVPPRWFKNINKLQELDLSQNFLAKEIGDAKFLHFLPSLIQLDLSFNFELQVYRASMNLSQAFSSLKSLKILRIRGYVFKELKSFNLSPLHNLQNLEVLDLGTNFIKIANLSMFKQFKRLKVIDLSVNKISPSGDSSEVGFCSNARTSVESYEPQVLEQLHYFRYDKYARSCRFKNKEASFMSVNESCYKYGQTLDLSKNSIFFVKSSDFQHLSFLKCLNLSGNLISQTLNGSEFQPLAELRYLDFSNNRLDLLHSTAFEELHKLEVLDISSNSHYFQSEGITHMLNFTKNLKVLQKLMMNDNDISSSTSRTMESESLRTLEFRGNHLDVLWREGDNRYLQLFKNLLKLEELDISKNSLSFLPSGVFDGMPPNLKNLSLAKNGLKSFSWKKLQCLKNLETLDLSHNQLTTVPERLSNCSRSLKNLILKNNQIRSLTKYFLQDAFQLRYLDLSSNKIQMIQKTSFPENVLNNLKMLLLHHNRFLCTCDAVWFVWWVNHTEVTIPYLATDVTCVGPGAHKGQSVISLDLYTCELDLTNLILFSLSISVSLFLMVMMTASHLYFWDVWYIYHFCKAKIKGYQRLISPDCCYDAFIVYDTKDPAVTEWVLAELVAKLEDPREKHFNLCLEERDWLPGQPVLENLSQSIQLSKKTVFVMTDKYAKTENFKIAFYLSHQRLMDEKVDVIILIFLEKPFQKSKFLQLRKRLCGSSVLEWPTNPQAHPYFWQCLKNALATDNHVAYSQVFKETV
As to the kind of experiment: HEK-Blue hTLR7 SEAP reporter gene inhibition assay. The test is classed as cell-based. The essentials:
as §1

The mark [1] stands for this setting: hTLR8 HEK-Blue cells, TLR8 ligand 10 µM, 20 hours, SEAP by Quanti-blue, class symbols, read-out: HEK-Blue hTLR8 IC50.
Where [2] appears, read: hTLR7 HEK-Blue cells, TLR7 ligand Gardiquimod 10 µM, 20 hours, SEAP by Quanti-blue, class symbols, read-out: HEK-Blue hTLR7 IC50.

What is called IC50 is the concentration that inhibits the measured activity by half. For `C[C@@H]1CN(c2ccc(C#N)n3ncc(F)c23)Cc2c3c(nn21)CNC(c1ccn[nH]1)C3` (stereo partly drawn) [Example I-68, 3-Fluoro-4-((4R)-4-methyl-9-(1H-pyrazol-5-yl)-3,4,7,8,9,10-hexahydropyrido[3',4':3,4]pyrazolo[1,5-a]pyrazin-2(1H)-yl)pyrazolo[1,5-a]pyridine-7-carbonitrile], the IC50 was below 0.1 µM on human TLR8 (setting [1]) and above 0.05 µM at human TLR7 (setting [2]).

Turning to `C[C@@H]1CN(c2ccc(C#N)n3ncc(F)c23)Cc2c3c(nn21)CN(Cc1cn[nH]c1)[C@@H](C)C3` [Example I-137, 4-((4R,9S)-8-((1H-pyrazol-4-yl)methyl)-4,9-dimethyl-3,4,7,8,9,10-hexahydropyrido [3',4':3,4]pyrazolo[1,5-a]pyrazin-2(1H)-yl)-3-fluoropyrazolo[1,5-a]pyridine-7-carbonitrile], the IC50 at human TLR8 (setting [1]) is below 0.1 µM; on human TLR7 (setting [2]), below 0.05 µM.

With `C[C@@H]1CN(c2ccc(C#N)n3ncc(F)c23)Cc2c3c(nn21)CNC(CCOC(C)(C)C)C3` (stereo partly drawn) [Example I-61, 4-((4R)-9-(2-(tert-butoxy)ethyl)-4-methyl-3,4,7,8,9,10-hexahydropyridine[3',4':3,4]pyrazole[1,5-a]pyrazine-2(1H)-yl)-3-fluoropyrazole[1,5-a]pyridine-7-caronitrile], the IC50 on human TLR8 (HEK-Blue hTLR8 IC50 (µM)) is above 0.1 µM; at human TLR7 (HEK-Blue hTLR7 IC50 (µM)) it was below 0.05 µM.

For `CC1CNCc2c1nn1c2CN(c2ccc(C#N)n3ncc(F)c23)C[C@H]1C` (stereo partly drawn) [Example I-12, 4-((7R)-4,7-dimethyl-1,3,4,7,8,10-hexahydropyrido[4',3':3,4]pyrazolo[1,5-a]pyrazin-9(2H)-yl)-3-fluoropyrazolo[1,5-a]pyridine-7-carbonitrile], the values for the IC50 on human TLR8 (setting [1]) and on human TLR7 (setting [2]) were below 0.1 µM and below 0.05 µM, respectively.

As for `C[C@@H]1CN(c2ccc(C#N)n3ncc(F)c23)Cc2c3c(nn21)C(CO)NCC3` (stereo partly drawn) [Example I-33, 3-Fluoro-4-((4R)-7-(hydroxymethyl)-4-methyl-3,4,7,8,9,10-hexahydropyrido[3',4':3,4]pyrazolo[1,5-a]pyrazin-2(1H)-yl)pyrazolo[1,5-a]pyridine-7-carbonitrile], the IC50 at human TLR8 (setting [1]) was below 0.1 µM; at human TLR7 (setting [2]) it was above 0.05 µM.

`COC[C@@H]1Cc2c(nn3c2CN(c2ccc(C#N)n4ncc(F)c24)C[C@H]3C)CN1` [Example I-85, 3-Fluoro-4-((4R,9S)-9-(methoxymethyl)-4-methyl-3,4,7,8,9,10-hexahydropyrido [3',4':3,4]pyrazolo[1,5-a]pyrazin-2(1H)-yl)pyrazolo[1,5-a]pyridine-7-carbonitrile]: the IC50 was below 0.1 µM at human TLR8 (setting [1]) and above 0.05 µM on human TLR7 (setting [2]).

On to `CC1Cc2nn3c(c2CN1)CN(c1ccc(C#N)n2ncc(F)c12)C[C@H]3C` (single isomer, unassigned) [Example I-11b], for which the IC50 is below 0.1 µM at human TLR8 (setting [1]) and below 0.05 µM at human TLR7 (setting [2]).

Take `C[C@@H]1CN(c2ccc(C#N)n3ncc(F)c23)Cc2c3c(nn21)C1CCC(C3)N1` (stereo partly drawn) [Example I-52, 3-Fluoro-4-((4R)-4-methyl-1,3,4,7,8,9,10,11-octahydro-2H-7,10-epiminocyclohepta [3,4]pyrazolo[1,5-a]pyrazin-2-yl)pyrazolo[1,5-a]pyridine-7-carbonitrile]: the results for the IC50 at human TLR8 (setting [1]) and at human TLR7 (setting [2]) were below 0.1 µM and below 0.05 µM, respectively.

In the case of `C[C@@H]1CN(c2ccc(C#N)n3ncc(F)c23)Cc2c3c(nn21)CNC(c1cnn(C)c1)C3` (stereo partly drawn) [Example I-91, 3-Fluoro-4-((4R)-4-methyl-9-(1-methyl-1H-pyrazol-4-yl)-3,4,7,8,9,10-hexahydropyrido[3',4':3,4]pyrazolo[1,5-a]pyrazin-2(1H)-yl)pyrazolo[1,5-a]pyridine-7-carbonitrile], the IC50 on human TLR8 (setting [1]) is below 0.1 µM; on human TLR7 (setting [2]), below 0.05 µM.

On to `C[C@@H]1CN(c2ccc(C#N)n3ncc(F)c23)Cc2c3c(nn21)CN(C1CC2(COC2)C1)[C@@H](C)C3` [Example I-135], for which the IC50 against human TLR8 (HEK-Blue hTLR8 IC50 (µM)) was below 0.1 µM; on human TLR7 (HEK-Blue hTLR7 IC50 (µM)) it was below 0.05 µM.

For the compound `C[C@@H]1CN(c2ccc(C#N)n3ncc(F)c23)Cc2c3c(nn21)CN(S(=O)(=O)CCN(C)C)[C@@H](C)C3` [Example I-118], the figures for the IC50 on human TLR8 (setting [1]) and on human TLR7 (setting [2]) were below 0.1 µM and below 0.05 µM, respectively.

As to `CC1Cc2nn3c(c2CN1)CN(c1ccc(C#N)n2ncc(F)c12)C[C@H]3C` (single isomer, unassigned) [Example I-11a], the values for the IC50 on human TLR8 (setting [1]) and on human TLR7 (setting [2]) were below 0.1 µM and below 0.05 µM, respectively.

Turning to `C[C@@H]1CN(c2ccc(C#N)n3ncc(F)c23)Cc2c3c(nn21)CN(CC12CC(C(N)=O)(C1)C2)[C@@H](C)C3` [Example I-193, 3-(((4R,9S)-2-(7-cyano-3-fluoropyrazolo [1,5-a]pyridin-4-yl)-4,9-dimethyl-1,2,3,4,9,10-hexahydropyrido[3',4':3,4]pyrazolo[1,5-a]pyrazin-8(7H)-yl)methyl)bicyclo[1.1.1] pentane-1-carboxamide], the IC50 is below 0.1 µM at human TLR8 (setting [1]) and above 0.05 µM at human TLR7 (setting [2]).

In the case of `COC[C@H]1Cc2c(nn3c2CN(c2ccc(C#N)n4ncc(F)c24)C[C@H]3C)CN1` [Example I-82, 3-Fluoro-4-((4R,9R)-9-(methoxymethyl)-4-methyl-3,4,7,8,9,10-hexahydropyrido [3',4':3,4]pyrazolo[1,5-a]pyrazin-2(1H)-yl)pyrazolo[1,5-a]pyridine-7-carbonitrile], the IC50 was above 0.1 µM on human TLR8 (setting [1]) and below 0.05 µM on human TLR7 (setting [2]).

As to `C[C@@H]1CN(c2ccc(C#N)n3ncc(F)c23)Cc2c3c(nn21)CN(C1CCC1O)[C@@H](C)C3` (stereo partly drawn) [Example I-174, 3-Fluoro-4-((4R,9S)-8-(2-hydroxycyclobutyl)-4,9-dimethyl-3,4,7,8,9,10-hexahydropyrido[3',4':3,4]pyrazolo[1,5-a]pyrazin-2(1H)-yl)pyrazolo[1,5-a]pyridine-7-carbonitrile], the IC50 was above 0.1 µM at human TLR8 (setting [1]) and below 0.05 µM on human TLR7 (setting [2]).

As to `C[C@@H]1CN(c2ccc(C#N)n3ncc(F)c23)Cc2c3c(nn21)C(C)(C)NCC3` [Example I-45, (R)-3-Fluoro-4-(4,7,7-trimethyl-3,4,7,8,9,10-hexahydropyrido[3',4':3,4]pyrazolo[1,5-a]pyrazin-2(1H)-yl)pyrazolo[1,5-a]pyridine-7-carbonitrile], the IC50 on human TLR8 (setting [1]) was below 0.1 µM; on human TLR7 (setting [2]), below 0.05 µM.

`C[C@@H]1CN(c2ccc(C#N)n3ncc(F)c23)Cc2c3c(nn21)CN(CC(=O)N1CCN(C2CC2)CC1)[C@@H](C)C3` [Example I-136, 4-((4R,9S)-8-(2-(4-cyclopropylpiperazin-1-yl)-2-oxoethyl)-4,9-dimethyl-3,4,7,8,9,10-hexahydropyrido[3',4':3,4]pyrazolo[1,5-a]pyrazin-2(1H)-yl)-3-fluoropyrazolo[1,5-a]pyridine-7-carbonitrile]: the IC50 on human TLR8 (setting [1]) is below 0.1 µM; on human TLR7 (setting [2]), below 0.05 µM.
